Data from patent US20250130239A1, “PROTEIN DEGRADER” (University of Dundee, priority 2021, published 2025).

How the values were obtained:
[1] = target: T1, MCM2 (P49736), BromoTag N-term (Homo sapiens, UniProt O60885+P40337, L387A); test: Degradation of BromoTag'ed MCM2 by AGB1; assay type: cell-based
T1 construct: comprising residues 368-440 of human Brd4; MCM2 (endogenous protein, fusion partner in the same polypeptide); expressed in transfected cells
From the text: Degradation of a variety of target proteins. […] We performed CRISPR knock-in of the BromoTag, as described, into the endogenous loci of five additional proteins. […] The target proteins of Table 6 are all different, are all known to have different cellular roles and function, intracellular expression, and distinctive turnover rates within cells.

[2] = test system: BRD3, BRD4 or any other endogenous protein; test: TMT labeling mass spectrometry proteomics, off-targets; assay type: cell-based, human; settings: 1 μM, 2 h; >6,621 proteins quantified
Experimental: Sample processing, TMT labelling and fractionation. CRISPR modified BromoTag-Brd2 HEK293 cells were seeded 5×10^6 cells on a […] 24 h before treatment. Cells were treated with either DMSO, 1 μM AGB1 or 1 μM cis-AGB1. 2 h post-treatment, the cells were washed twice with PBS. Cells were lysed in 150 μL of 100 mM TEAB, 5% (w/v) SDS. The lysate was sonicated for 10 s and then centrifuged at 15,000 g for 5 min with the supernatant collected post-centrifugation. Samples were then quantified using a micro-BCA protein assay kit (Thermo Fisher Scientific); 300 μg of each sample were then reduced, alkylated and then digested using Strap mini protocol (Protifi) protocol as described by the manufacturer (protifi) with some modification. Samples were double digested with trypsin (1:40) first overnight then for another 6 hrs with the same ratio (1:40) in 50 mM TEAB buffer. Peptides were quantified using a quantitative fluorometric peptide assay (Thermo Fisher Scientific). The samples (90 μg each) were labelled with a TMT 10-plex Isobaric Label Reagent set (Thermo Fisher Scientific) as per the manufacturer's instructions. After labelling, samples were checked for labelling efficiency, then mixed, desalted, and dried in a speed-vac at 30° C. Samples were re-dissolved in 200 μl ammonium formate (10 mM, pH 9.5) and peptides were fractionated using High pH RP Chromatography. […]

T1 sequence (P40337 whole entry, other chains not shown, the tested form may be a part): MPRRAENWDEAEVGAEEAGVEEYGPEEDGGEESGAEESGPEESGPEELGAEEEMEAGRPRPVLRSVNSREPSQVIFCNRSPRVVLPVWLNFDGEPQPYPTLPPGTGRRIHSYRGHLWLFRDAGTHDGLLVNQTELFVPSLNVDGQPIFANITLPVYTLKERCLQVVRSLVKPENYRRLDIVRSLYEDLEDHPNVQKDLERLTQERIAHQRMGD

With CC[C@@H](C(=O)OCCOCCOCCOCC(=O)N[C@H](C(=O)N1C[C@H](O)C[C@H]1C(=O)NCc1ccc(-c2scnc2C)cc1)C(C)(C)C)[C@@H]1N=C(c2ccc(Cl)cc2)c2c(sc(C)c2C)-n2c(C)nnc21 (single isomer, unassigned) [AGB1 (46)] the Dmax [1] was > 95%, the pDC50 ([1]; BromoTag'ed MCM2, N-term tag) was 8.0 and the “depletion of BRD3, BRD4 or any other endogenous protein (proteomics)” value [2] was “no detectable off-target effects”.
